According to patent US4576961A, “Antibiotic heterocyclic oxygen compounds and use” (priority 1980, dated 1986):

Experiments:
[1] = stability of PR-1381 in solution; type: physicochemical
Description: Characteristic signals seen in an ^1 H-NMR-spectrum recorded immediately after dissolution of PR-1381 in deuterochloroform are listed in table E.
When the solution in deuterochloroform is allowed to stand at room temperature, these initial signals gradually disappear while methanol is liberated from the molecule, and finally after 10 hours, a spectrum is observed which is identical with that obtained from PR-1350 complex in deuterochloroform, except for an extra signal at δ=3.48, probably due to methanol liberated during the transformation of PR-1381 to the PR-1350 complex.

microorganisms = assay: anti-microbial effect; type: cell-based

## COC1(O)C(O)OC(CC2(C)C(C)CCC3(C)C(C=O)=CCCC32)C12CO2 (stereo not shown) [PR-1381]
[1]; deuterochloroform, room temperature
  time after which spectrum is identical with that of PR-1350 complex: 10 h
[1]; in solution
  decomposition in solution: decomposes to the PR-1350 complex with liberation of methanol
microorganisms
  antibiotic activity: antibiotically active
microorganisms; qualitatively and quantitatively
  anti-microbial effect compared with PR-1350 complex: identical with that of the PR-1350 complex
